Columns and labels:
[1] = system: Freund's Complete Adjuvant induced arthritis model of Sprague Dawley (SD) rats; assay: In-vivo anti-inflammatory activity of Composition-1, Freund's Complete Adjuvant induced arthritis model (Example 17); settings: Composition-1 200 mg/kg body weight, Prednisolone 10 mg/kg, daily for 35 days, vs CMC control
Method: The in-vivo anti-inflammatory activity of composition-1, comprising the water extract of 50 g of Terminalia chebula, 25 g of methanol extract of Curcuma longa, 25 g of Boswellia serrata non-acidic resin extract (BNRE), so that their percentages in the composition are 50%, 25% and 25% respectively was evaluated by an in-vivo study in Freund's Complete Adjuvant induced arthritis model of Sprague Dawley (SD) rats.
(§1) Prednisolone was used as a positive control. The healthy male SD rats were selected and randomly divided into four groups containing six animals per group. The treatment group rats were supplemented daily with 200 mg/kg body weight of Composition-1 for 35 days. The positive control group was supplemented daily with Prednisolone at 10 mg/kg body weight. All supplements were diluted in 10 mL of 1% CMC for administration. The animals of control group received same volume of 1% CMC. At the 7th day, Freund's Complete Adjuvant (FCA) was injected subcutaneously in the sub-plantar region of the left hind paw of each animal. Paw volumes and weight bearing capacities were respectively measured using Plethysmography equipment and Incapacitance Meter on the day of FCA injection and on 35th day of treatment. The difference in volume of paw edema is considered as the inflammatory response. […]

[2] = system: Freund's Complete Adjuvant induced arthritis model of Sprague Dawley rats; assay: In-vivo anti-inflammatory activity of Composition-7, Freund's Complete Adjuvant induced arthritis model (Example 18); settings: Composition-7 200 mg/kg body weight p.o., Prednisolone 10 mg/kg, daily for 35 days, vs CMC control
Source text: The in-vivo anti-inflammatory activity of composition-7, comprising the water extract of 36 g of Terminalia chebula, 18 g of methanol extract of Curcuma longa, 18 g of Boswellia serrata non-acidic resin extract (BNRE), 18 g of Boswellia serrata extract standardized to 75%-85% total acids by volumetric assay which contain 5% 3-O-acetyl-11-keto-β-boswellic acid (AKBA) and 10 g of excipients [Microcrystalline cellulose (MCC) and Syloid], so that their percentages in the composition are 36%, 18%, 18%, 18% and 10% respectively was evaluated by an in-vivo study in Freund's Complete Adjuvant induced arthritis model of Sprague Dawley rats.
as §1, with “Composition-7” for “Composition-1”, “At the 7th day, Freund's Complete Adjuvant (FCA) was injected subcutaneously in the sub-plantar region of the left hind paw of each animal.” left out, “treatment.” for “treatment. The difference in volume of paw edema is considered as the inflammatory response.”

C[C@]12C=CC(=O)C=C1CC[C@@H]1[C@@H]2[C@@H](O)C[C@@]2(C)[C@H]1CC[C@]2(O)C(=O)CO [Prednisolone]
% inhibition of Paw edema [1]: 72.73%
% inhibition of Paw edema [2]: 68.67%

Reference: patent US20210205401A1, “SYNERGISTIC DIETARY SUPPLEMENT COMPOSITIONS FOR THE PREVENTION, TREATMENT OR CONTROL OF INFLAMMATORY DISORDERS” (LAILA NUTRACEUTICALS, priority 2014, published 2021)
